# According to article PMC8881077 (Journal of Enzyme Inhibition and Medicinal Chemistry, 2022):
# Tests used:
# [1] = molecular target: huAChE-induced Aβ1–40 aggregation (Homo sapiens, UniProt P22303); experiment: huAChE-induced Aβ1–40 aggregation, ThT assay; format: biochemical; conditions: inhibitor 100 μM, Aβ1–40 230 μM, Aβ1–40/AChE ratio 100/1
# [2] = Metal-chelating property, UV-visual spectrometry; format: physicochemical; conditions: for molar ratio at intersection: complex with Cu^2+; for maximum absorption wavelength after adding AlCl3: compound and AlCl3 37.5 μM in methanol; for maximum absorption wavelength after adding CuCl2: compound and CuCl2 37.5 μM in methanol; for maximum absorption after adding FeSO4: compound and FeSO4 37.5 μM in methanol; for maximum absorption after adding ZnCl2: compound and ZnCl2 37.5 μM in methanol
# Protocol: The chelating property of compounds 5f and 7k were determined by UV-visual spectrometry and biometals such as Cu^2+, Zn^2+, Al^3+ and Fe^2+ were applied[19]^,[20]. […] The stoichiometry of the 5f-Cu^2+ complex was determined using the molar ratio method by preparing solutions of compound 5f with increasing amounts of CuCl2 at 386 nm.
# Further, the stoichiometry of the 7k-Cu^2+ complex was determined using the molar ratio method at 385 nm.
# The metal chelation property was investigated by UV absorption in a Shimadzu UV-2450 spectrophotometer. The detailed procedure referenced our previous work[20]^,[22].
# [3] = tested on: PC12 cells; experiment: Cytotoxicity on PC12 cells, MTT assay; format: cell-based; conditions: 40 μM
# [4] = tested on: BV-2 cells; experiment: Cytotoxicity on BV-2 cells, MTT assay; format: cell-based; conditions: 1 μM, 3 μM and 9 μM
# Protocol: Compounds 5f and 7k were selected to test the anti-inflammatory potency by measuring the production of inflammatory mediators TNF-α and NO in LPS-induced BV-2 cells[32]^,[33]. • Cytotoxicity of compounds 5f and 7k on BV-2 cells. Firstly, the cytotoxicity of compounds 5f and 7k were tested using an MTT assay. […] In inhibition of LPS-induced, NO production was tested through the Griess reaction method. […] […]. In addition, to further investigate the effects of compounds 5f and 7k on LPS-induced TNF-α production in BV-2 cells, the enzyme-linked immunosorbent assay (ELISA) was used. […].
# The anti-neuroinflammatory property of compounds 5f and 7k was assessed using BV-2 cells by evaluating the level of NO production and TNF-α production[32]^,[33]. Firstly, the cytotoxicity of compounds 5f and 7k was tested on BV-2 cells using an MTT assay. BV-2 cells were seeded in DMEM (100 μL) and cultured in a 96-well cell culture microplate and incubated in a humidified incubator containing 5% CO2 at 37 °C for 24 h. Then, 10 μL of 5f or 7k were added to cells in triplicate wells, followed by incubation for another 30 min. […] Finally, the crystals obtained were dissolved in DMSO (200 μ L) and OD values were measured at 490 nm. The results were recorded and expressed as the percent cell viability compared to the control group.
# [5] = tested on: NO production in LPS-induced BV-2 cells; experiment: NO production in BV-2 cells, Griess reaction; format: cell-based; conditions: for release volume of NO in BV-2 cells without LPS: 3 μM and 9 μM
# Protocol: Compounds 5f and 7k were selected to test the anti-inflammatory potency by measuring the production of inflammatory mediators TNF-α and NO in LPS-induced BV-2 cells[32]^,[33]. • Cytotoxicity of compounds 5f and 7k on BV-2 cells. Firstly, the cytotoxicity of compounds 5f and 7k were tested using an MTT assay. […] In inhibition of LPS-induced, NO production was tested through the Griess reaction method. […] In addition, to further investigate the effects of compounds 5f and 7k on LPS-induced TNF-α production in BV-2 cells, the enzyme-linked immunosorbent assay (ELISA) was used.
# Griess reagent system was used to evaluate the inhibition of LPS-induced NO production. The methods of culturing BV-2 cells, setting blank control and adding tested compounds 5f or 7k (1 μM, 3 μM and 9 μM) and LPS were the same as those in the cytotoxicity assay. After that, the cell culture supernatants and different concentrations of NaNO2 as a standard were added to a 96-well plate since the NaNO2 concentration in the supernatant could act as an indicator of NO production. Then, to each well was added the same volume of Griess reagent and incubated at room temperature for 10 min. Finally, the absorbance was monitored at 540 nm using an ELISA plate reader to measure the results of NO production.
# [6] = tested on: normal human hepatocytes cell line (LO2); experiment: Hepatotoxicity on LO2 cells; format: cell-based; conditions: 2.5 μM to 80.0 μM
# Protocol: The anti-AD drug tacrine has been forced to withdraw due to severe hepatotoxicity. Thus, the hepatotoxicity of compounds 5f on normal human hepatocytes cell line (LO2) was evaluated using MTT assay. […] Furthermore, the hepatoprotective activity of compound 5f on H2O2-induced live injury was tested using an MTT assay. […]
# • Materials. LO2 cells purchased from Wuhan Punosi Life Technology Co., Ltd. 30% H2O2, Trichloroacetic acid (TCA), SRB, DMEM medium (HyClone), Foetal bovine serum (LNSER, article number: S711-001S), Penicillin streptomycin mixture (double antibiotic) (Solarbio), 0.25% trypsin-EDTA digestive juice (Solarbio), DMSO (Solarbio), Potassium dihydrogen phosphate (Xiyu Science Co., Ltd., CAS: 7778-77-0); Ultra-clean workbench (Wuxi Easy Purification Equipment Co., Ltd., model: SW-CJ-VS2); Carbon dioxide incubator (Esco, model: 2014-88759); […]; • Experiment method. (a) Cell culture: cultured in DMEM medium containing 10% FBS and 1% double-antibody, placed in 37 °C, 5% CO2 constant temperature and humidity incubator, changed every 2 days, subcultured when cells were 90% confluent. […] The OD value was measured at 515 nm using a microplate reader. […] After treatment with H2O2 for 6h, the survival rate was measured by the SRB method.
# [7] = tested on: scopolamine-induced mice memory impairment; experiment: Step-down passive avoidance task; conditions: scopolamine 3 mg/kg
# Protocol: Sixty mice were randomly divided into six groups. […] After 30 min, memory impairment was induced by administering scopolamine (3 mg/kg).
# Chain of huAChE-induced Aβ1–40 aggregation (P22303 32-588 isoform P22303-2): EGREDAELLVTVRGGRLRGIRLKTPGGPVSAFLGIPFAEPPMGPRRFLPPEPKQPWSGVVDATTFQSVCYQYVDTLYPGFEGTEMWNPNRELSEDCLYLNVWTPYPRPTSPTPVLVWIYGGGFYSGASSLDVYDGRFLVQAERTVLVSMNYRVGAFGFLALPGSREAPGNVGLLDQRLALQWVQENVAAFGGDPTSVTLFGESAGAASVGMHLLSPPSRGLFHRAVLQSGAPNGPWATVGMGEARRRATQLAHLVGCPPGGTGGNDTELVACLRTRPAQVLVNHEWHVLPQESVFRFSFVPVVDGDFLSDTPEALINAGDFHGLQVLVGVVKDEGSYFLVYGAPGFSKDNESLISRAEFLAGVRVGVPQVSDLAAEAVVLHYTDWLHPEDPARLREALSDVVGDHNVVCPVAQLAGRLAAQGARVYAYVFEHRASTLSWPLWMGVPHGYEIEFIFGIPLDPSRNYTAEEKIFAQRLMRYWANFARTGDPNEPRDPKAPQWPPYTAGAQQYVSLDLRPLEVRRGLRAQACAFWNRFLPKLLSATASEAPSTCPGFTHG
compound,measurement,setting,value
7-((6-(benzyl(ethyl)amino)hexyl)oxy)-2–(4-((6-(benzyl(ethyl)amino)hexyl)oxy)phenyl)-5-hydroxychroman-4-one [Compound 7k],Inhibition of huAChE-induced Aβ1–40 aggregation (%),[1],43.4 ± 0.43%
same,molar ratio at intersection,[2],1.1
same,maximum absorption wavelength after adding AlCl3,[2],did not show an obvious change
same,maximum absorption wavelength after adding CuCl2,[2],385 nm
same,maximum absorption after adding FeSO4,[2],did not show an obvious change
same,maximum absorption after adding ZnCl2,[2],did not show an obvious change
same,cytotoxicity on PC12 cells,[3],did not show any cytotoxicity
same,cell viability of BV-2 cells,[4],did not show obvious change
same,inhibition rate of LPS-induced NO production,"[5]; 1 μM, 1 μg/mL LPS",26.7%
same,release volume of NO in BV-2 cells without LPS,[5]; 1 μM,did not produce significant change
same,inhibition rate of LPS-induced NO production,"[5]; 3 μM, 1 μg/mL LPS",36.2%
same,inhibition rate of LPS-induced NO production,"[5]; 9 μM, 1 μg/mL LPS",48.5%
"CCN(CCCCCOc1cc(O)c2c(c1)OC(c1ccc(O)cc1)CC2=O)Cc1ccccc1 (stereo not shown) [Compound 5f, 7-((5-(benzyl(ethyl)amino)pentyl)oxy)-5-hydroxy-2–(4-hydroxyphenyl)chroman-4-one]",Inhibition of huAChE-induced Aβ1–40 aggregation (%),[1],51.7 ± 0.75%
same,molar ratio at intersection,[2],1.1
same,maximum absorption wavelength after adding AlCl3,[2],388 nm
same,maximum absorption wavelength after adding CuCl2,[2],386 nm
same,maximum absorption after adding FeSO4,[2],did not present obvious shift
same,maximum absorption after adding ZnCl2,[2],did not present obvious shift
same,cytotoxicity on PC12 cells,[3],did not show any cytotoxicity
same,cell viability of BV-2 cells,[4],did not show obvious change
same,release volume of NO in BV-2 cells without LPS,[5]; 1 μM,did not produce significant change
same,inhibition at 1 µM,"[5]; Mus musculus, BV-2, 1 μM, 1 μg/mL LPS, read-out: inhibition rate of LPS-induced NO production",37.6%
same,inhibition at 3 µM,"[5]; Mus musculus, BV-2, 3 μM, 1 μg/mL LPS, read-out: inhibition rate of LPS-induced NO production",52.1%
same,inhibition at 9 µM,"[5]; Mus musculus, BV-2, 9 μM, 1 μg/mL LPS, read-out: inhibition rate of LPS-induced NO production",63.8%
same,LO2 cell viability (hepatotoxicity),[6],did not show an obvious change until the concentration increased to 40.0 μM
same,step-down latency,[7]; 1.9 mg/kg,153.7 s
same,step-down latency,[7]; 5.7 mg/kg,183.4 s
same,step-down latency,[7]; 17.1 mg/kg,207.8 s
